{"source": "patent US20040034037A1", "about": "“Heteroaryl compounds useful as inhibitors of GSK-3” (priority 2002, published 2004)"}
{"target": "T1, GSK-3β (AA 1-420) (Homo sapiens, UniProt P49841)", "T1 construct": "GSK-3β (AA 1-420)", "T1 sequence (P49841 whole entry, the tested form may be a part)": "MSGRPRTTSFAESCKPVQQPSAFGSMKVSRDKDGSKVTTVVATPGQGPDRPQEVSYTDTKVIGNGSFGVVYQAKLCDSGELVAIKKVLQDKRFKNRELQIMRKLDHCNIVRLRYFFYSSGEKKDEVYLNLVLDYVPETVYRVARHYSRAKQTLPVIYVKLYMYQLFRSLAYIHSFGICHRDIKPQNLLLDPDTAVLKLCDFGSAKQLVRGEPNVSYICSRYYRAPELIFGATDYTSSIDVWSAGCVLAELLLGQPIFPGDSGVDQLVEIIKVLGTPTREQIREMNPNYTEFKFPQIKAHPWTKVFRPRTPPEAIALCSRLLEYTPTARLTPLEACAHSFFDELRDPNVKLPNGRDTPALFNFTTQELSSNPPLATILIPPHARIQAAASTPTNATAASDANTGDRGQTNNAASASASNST", "test": "Ki determination for the inhibition of GSK-3 (standard coupled enzyme system)", "format": "biochemical", "conditions": "20 μM ATP, 300 μM peptide, 30° C.", "procedure": "Reactions were carried out in a solution containing 100 mM HEPES (pH 7.5), 10 mM MgCl2, 25 mM NaCl, 300 μM NADH, 1 mM DTT and 1.5% DMSO. Final substrate concentrations in the assay were 20 μM ATP (Sigma Chemicals, St Louis, Mo.) and 300 μM peptide (HSSPHQS(PO3H2)EDEEE, American Peptide, Sunnyvale, Calif.). Reactions were carried out at 30° C. and 20 nM GSK-30. Final concentrations of the components of the coupled enzyme system were 2.5 mM phosphoenolpyruvate, 300 μM NADH, 30 μg/ml pyruvate kinase and 10 μg/ml lactate dehydrogenase.\nAn assay stock buffer solution was prepared containing all of the reagents listed above with the exception of ATP and the test Compound of interest. The assay stock buffer solution (175 μl) was incubated in a 96 well plate with 5 μl of the test compound of interest at final concentrations spanning 0.002 μM to 30 μM at 30° C. for 10 minutes. […] The reaction was initiated by the addition of 20 μl of ATP (final concentration 20 μM). Rates of reaction were obtained using a Molecular Devices Spectramax plate reader (Sunnyvale, Calif.) over 10 minutes at 30° C. The Ki values were determined from the rate data as a function of inhibitor concentration.", "units": {"Ki": "nM"}}
{"smiles": "CC(C#N)n1c(-c2nonc2N)nc2ccccc21", "note": "(racemic) [Compound I-51]", "Ki": "< 1000"}
{"smiles": "CCCn1c(-c2nonc2N)nc2ccccc21", "note": "[Compound I-7, 4-(1-Propyl-1H-benzoimidazol-2-yl)-furazan-3-ylamine]", "Ki": "< 1000"}
{"smiles": "C=CCn1c(-c2nonc2N)nc2ccccc21", "note": "[Compound I-9, 4-(1-Allyl-1H-benzoimidazol-2-yl)-furazan-3-ylamine]", "Ki": "< 1000"}
{"smiles": "CC(C)n1c(-c2nonc2N)nc2ccccc21", "note": "[Compound I-11, 4-(1-Isopropyl-1H-benzoimidazol-2-yl)-furazan-3-ylamine]", "Ki": "< 1000"}
{"smiles": "N#CCn1c(-c2nonc2N)nc2ccccc21", "note": "[Compound I-13, [2-(4-Amino-furazan-3-yl)-benzoimidazol-1-yl]-acetonitrile]", "Ki": "< 1000"}
{"smiles": "Nc1nonc1-c1nc2ccccc2n1CC(=O)Nc1ccc(F)c(F)c1", "note": "[Compound I-19, 2-[2-(4-Amino-furazan-3-yl)-benzoimidazol-1-yl]-N-(3,4-difluoro-phenyl)-acetamide]", "Ki": "< 1000"}
{"smiles": "Nc1nonc1-c1nc2ccccc2n1CC1CC1", "note": "[Compound I-32, 1-Cyclopropylmethyl-2-[(4-amino)-1,2,5-oxadiazol-3-yl]benzimidazole]", "Ki": "< 1000"}
{"smiles": "Nc1nonc1-c1nc2ccccc2n1CC(F)(F)F", "note": "[Compound I-37, 1-(2,2,2-Trifluoro)ethyl-2-[(4-amino)-1,2,5-oxadiazol-3-yl]benzimidazole]", "Ki": "< 1000"}
{"smiles": "COc1ccc2c(c1)nc(-c1nonc1N)n2CC#N", "note": "[Compound I-47, 1-Cyanomethyl-2-[(4-amino)-1,2,5-oxadiazol-3-yl]-5/6-methoxy benzimidazole]", "Ki": "< 1000"}
{"smiles": "Nc1nonc1-c1nc2ccccc2n1-c1ccccc1", "note": "[Compound I-50, 1-Phenyl-2-[(4-amino)-1,2,5-oxadiazol-3-yl]benzimidazole]", "Ki": "< 1000"}
{"smiles": "CC(C)CCn1c(-c2nonc2N)nc2ccccc21", "note": "[Compound I-54, 1-(3-Methyl)butyl-2-[(4-amino)-1,2,5-oxadiazol-3-yl]benzimidazole]", "Ki": "< 1000"}
{"smiles": "CCn1c(-c2nonc2N)nc2ccccc21", "note": "[Compound I-55, 4-(1-Ethyl-1H-benzoimidazol-2-yl)-furazan-3-ylamine]", "Ki": "< 1000"}
{"smiles": "N#CCn1c(-c2nonc2N)nc2c([N+](=O)[O-])cccc21", "note": "[Compound I-56, 1-Cyanomethyl-2-[(4-amino)-1,2,5-oxadiazol-3-yl]-4-nitro benzimidazole]", "Ki": "< 1000"}
{"smiles": "N#CCOc1cccc2c1nc(-c1nonc1N)n2CC#N", "note": "[Compound I-58, 1-Cyanomethyl-2-[(4-amino)-1,2,5-oxadiazol-3-yl]-4/7-cyanomethoxy benzimidazole]", "Ki": "< 1000"}
{"smiles": "Nc1cccnc1-c1nc2ccccc2[nH]1", "note": "[Compound I-87]", "Ki": "< 1000"}
{"smiles": "CNc1nccnc1-c1nc2ccccc2n1CC#N", "note": "[Compound I-90, 3-(1-Cyanomethylbenzimidazol-2-yl)-pyrazin-2-yl methylamine]", "Ki": "< 1000"}
{"smiles": "CC(C)Cn1c(-c2nc(Cl)cnc2N)nc2ccccc21", "note": "[Compound I-96]", "Ki": "< 1000"}
{"smiles": "CC(C(N)=O)n1c(-c2nonc2N)nc2ccccc21", "note": "(stereo not shown) [Compound I-109]", "Ki": "< 1000"}
{"smiles": "CC(C)Cn1c(-c2nonc2N)nc2cc(O)ccc21", "note": "[Compound I-129]", "Ki": "< 1000"}
